Reference: ChEMBL document CHEMBL6092161, “First fragment-based screening identifies new chemotypes inhibiting ERAP1-metalloprotease” (Eur J Med Chem, 2024)

Experiments:
[1] = target: Endoplasmic reticulum aminopeptidase 2 (Homo sapiens) (UniProt Q6P179); experiment: Inhibition of recombinant human ERAP2 at 300 uM using R-AMC as substrate preincubated for 30 mins followed by substrate addition and measured after 1 hr by fluorescence based assay relative to control; details: time 90.0 min
[2] = test system: Insulin-regulated aminopeptidase (Homo sapiens); experiment: Inhibition of recombinant human IRAP at 300 uM using L-AMC as substrate preincubated for 30 mins followed by substrate addition and measured after 1 hr by fluorescence based assay; details: time 90.0 min
[3] = target: T1, Endoplasmic reticulum aminopeptidase 1 (Homo sapiens, UniProt Q9NZ08); experiment: Inhibition of recombinant human ERAP1 using L-AMC as substrate preincubated for 30 mins followed by substrate addition and measured after 1 hr by fluorescence based assay
[4] = target: T1, Endoplasmic reticulum aminopeptidase 1; experiment: Inhibition of human ERAP1 using L-SIINFEKL as substrate by LC-MS/MS method
[5] = target: Endoplasmic reticulum aminopeptidase 2 (Homo sapiens) (UniProt Q6P179); experiment: Inhibition of recombinant human ERAP2 at 90 uM using R-AMC as substrate preincubated for 30 mins followed by substrate addition and measured after 1 hr by fluorescence based assay relative to control; details: time 90.0 min
[6] = target: T1, Endoplasmic reticulum aminopeptidase 1; experiment: Inhibition of recombinant human ERAP1 using L-AMC as substrate at 90 uM preincubated for 30 mins followed by substrate addition and measured after 1 hr by fluorescence based assay relative to control; details: time 90.0 min
[7] = target: T1, Endoplasmic reticulum aminopeptidase 1; experiment: Inhibition of recombinant human ERAP1 using L-AMC as substrate at 4 uM preincubated for 30 mins followed by substrate addition and measured after 1 hr by fluorescence based assay relative to control; details: time 90.0 min

Sequence of Endoplasmic reticulum aminopeptidase 2 (Homo sapiens) (Q6P179 whole entry): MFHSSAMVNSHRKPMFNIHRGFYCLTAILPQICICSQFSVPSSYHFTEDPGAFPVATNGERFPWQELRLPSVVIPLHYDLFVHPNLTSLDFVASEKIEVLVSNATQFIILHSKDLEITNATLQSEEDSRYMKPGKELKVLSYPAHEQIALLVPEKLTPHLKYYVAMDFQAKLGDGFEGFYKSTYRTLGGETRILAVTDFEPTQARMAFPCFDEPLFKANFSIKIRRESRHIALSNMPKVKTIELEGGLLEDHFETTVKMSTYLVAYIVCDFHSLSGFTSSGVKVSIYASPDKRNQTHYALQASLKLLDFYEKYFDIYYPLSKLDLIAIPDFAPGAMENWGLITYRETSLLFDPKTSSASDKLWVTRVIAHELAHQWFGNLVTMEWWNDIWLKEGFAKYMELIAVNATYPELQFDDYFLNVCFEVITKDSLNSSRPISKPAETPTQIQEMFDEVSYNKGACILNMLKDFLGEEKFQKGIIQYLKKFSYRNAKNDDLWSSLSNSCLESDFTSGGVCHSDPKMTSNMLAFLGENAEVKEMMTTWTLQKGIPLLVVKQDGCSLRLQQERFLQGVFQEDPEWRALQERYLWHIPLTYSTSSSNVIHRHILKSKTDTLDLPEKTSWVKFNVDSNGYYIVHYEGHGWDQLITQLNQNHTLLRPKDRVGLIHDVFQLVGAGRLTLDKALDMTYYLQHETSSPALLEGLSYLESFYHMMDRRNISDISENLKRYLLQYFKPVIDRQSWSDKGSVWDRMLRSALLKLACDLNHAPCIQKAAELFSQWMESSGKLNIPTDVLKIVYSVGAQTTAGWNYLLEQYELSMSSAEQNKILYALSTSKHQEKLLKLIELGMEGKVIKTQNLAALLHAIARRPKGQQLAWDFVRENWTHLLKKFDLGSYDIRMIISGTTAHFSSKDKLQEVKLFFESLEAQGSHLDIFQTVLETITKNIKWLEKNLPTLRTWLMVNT
T1 sequence (Q9NZ08 whole entry): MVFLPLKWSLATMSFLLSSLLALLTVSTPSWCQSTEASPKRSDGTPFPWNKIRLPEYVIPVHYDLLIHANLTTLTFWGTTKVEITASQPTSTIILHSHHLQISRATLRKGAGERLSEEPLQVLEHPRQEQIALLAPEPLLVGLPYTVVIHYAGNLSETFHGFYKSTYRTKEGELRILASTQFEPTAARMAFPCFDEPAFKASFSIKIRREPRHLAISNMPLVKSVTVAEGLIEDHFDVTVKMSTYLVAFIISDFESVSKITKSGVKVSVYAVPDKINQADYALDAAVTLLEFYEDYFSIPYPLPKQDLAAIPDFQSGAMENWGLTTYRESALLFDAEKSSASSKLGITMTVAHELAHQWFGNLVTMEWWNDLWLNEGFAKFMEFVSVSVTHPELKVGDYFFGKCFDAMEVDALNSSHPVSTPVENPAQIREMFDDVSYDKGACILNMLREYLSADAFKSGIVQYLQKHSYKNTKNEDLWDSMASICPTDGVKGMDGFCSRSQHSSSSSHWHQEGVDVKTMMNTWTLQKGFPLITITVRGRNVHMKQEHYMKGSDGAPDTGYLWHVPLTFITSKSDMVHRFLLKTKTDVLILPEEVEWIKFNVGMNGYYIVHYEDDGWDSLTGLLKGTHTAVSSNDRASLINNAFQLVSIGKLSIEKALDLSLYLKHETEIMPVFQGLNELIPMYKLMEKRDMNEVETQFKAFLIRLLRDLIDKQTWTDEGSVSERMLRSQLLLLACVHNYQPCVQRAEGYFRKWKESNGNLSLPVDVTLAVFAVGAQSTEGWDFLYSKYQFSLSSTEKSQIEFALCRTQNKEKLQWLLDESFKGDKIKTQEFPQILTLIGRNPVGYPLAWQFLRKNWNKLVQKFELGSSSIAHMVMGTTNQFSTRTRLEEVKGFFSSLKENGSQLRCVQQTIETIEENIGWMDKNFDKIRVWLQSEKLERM

SMILES	inhibition [2] [%]	IC50 [3] [µM]	also measured
O=C(O)c1ccc(CC2SC(=S)NC2=O)cc1 (centres undefined)	< 30		inhibition [1]: < 30%
COC(=O)c1ccc(/C=C2\SC(=S)NC2=O)cc1	< 30		
O=C1NC(=O)/C(=C/c2ccc(C(=O)O)cc2)N1	30		
CN1C(=O)/C(=C/c2ccc(C(=O)O)cc2)SC1=S	51		inhibition [1]: 43%
COc1ccc(Cc2c(O)nc(S)nc2O)cc1		58.3	
Nc1[nH]cnc2nc(S)nc1-2		2.2	IC50 [4]: 10.3 µM
O=C(O)Cc1ccc(S(=O)(=O)N2CCCCC2)s1	58		inhibition [1]: 38%
O=C1NC(=O)C(Cc2ccc(C(=O)O)cc2)S1 (centres undefined)	30		
O=C(O)Cc1ccc(S(=O)(=O)N2CCCC2)s1	62	27.2	
O=C1NC(=S)S/C1=C\c1ccc(C(=O)O)cc1		19.5	IC50 [4]: 28.6 µM
CC(C)C[C@H](NC(=O)[C@@H](O)[C@H](N)Cc1ccccc1)C(=O)O			inhibition [5]: 50%; inhibition [6]: 100%; inhibition [7]: 100%
O=C1NC(=O)/C(=C/c2ccc(C(=O)O)cc2)S1	38		
O=C(O)Cc1cccc(S(=O)(=O)N2CCCC2)c1	< 30		
O=c1[nH]c(=S)[nH]c(O)c1-c1ccccc1		82.6	
COC(=O)c1ccc(CC2SC(=S)NC2=O)cc1 (centres undefined)	< 30		
CN1C(=O)S/C(=C\c2ccc(C(=O)O)cc2)C1=O	47		
